Measurements taken from PMC5225172 (Cancer Chemotherapy and Pharmacology, 2016).

Experiments:
[1] = test system: Japanese patients with advanced or refractory solid tumors; assay: Phase I safety and tolerability: adverse events (NCI CTCAE v4.03), DLT, MTD
Experimental: Dosing on days 8 and 15 was permitted within a window of ±1 day if necessary, and dosing was considered missed if delayed by more than 1 day. Dose delays of up to 2 weeks were permitted for day 1 of cycle 2 or later, although for days 8 and 15 of cycle 2 and subsequent cycles, dosing within a window of ±3 days was permitted, except for in cycle 3, where dosing was to be administered within ±1 day of days 8 and 15.
Patients were enrolled into cohort 1 and were evaluated for the occurrence of a dose-limiting toxicity (DLT) as defined by the National Cancer Institute Common Terminology Criteria for Adverse Events version 4.03. […] Completion of cycle 1 in cohort 1 constituted study completion.
Protocol-defined DLTs included non-hematologic adverse events of grade ≥3. Hyperglycemia defined as a DLT was to be determined based on serum glucose values. Hematologic DLTs were defined as grade 4 neutropenia for ≥3 days, an absolute neutrophil count <1000 with fever ≥38.5 °C, and grade 4 thrombocytopenia. Patients with non-hematologic DLTs were to discontinue study treatment.
Screening comprised: provision of written, informed consent; demographics; baseline characteristics; concomitant medications; safety assessments (adverse events [defined as any new finding not present in the patient’s medical history, or a worsening of a prior medical history finding], vital signs, laboratory tests, physical examination, 12-lead electrocardiogram, multigated acquisition scan, or echocardiogram); tumor measurements by computed tomography or magnetic resonance imaging; disease assessment as defined by RECIST version 1.1; ophthalmologic examination; chest computed tomography; and ECOG PS assessment. The following assessments were also performed on cycle 1, day 1: safety; ECOG PS assessment; concomitant medications; blood samples for PK analysis; serum samples for glucose analysis; serum insulin; urinalysis; serum ketones; and post-dose echocardiogram. Safety assessments, blood pressure measurements, blood sampling for PK analysis, and urinalysis were also performed on days 8 and 15 of cycle 1.

class I PI3K = settings: compared with the p110β and p110γ isoforms; cited from earlier work

COc1c(OCCCN2CCOCC2)ccc2c1N=C(NC(=O)c1cnc(N)nc1)N1CCN=C21 [copanlisib, Copanlisib]
Treatment-emergent AE of all grades, irrespective of causality: Flu-like symptoms ([1]; Cohort 1, 0.4 mg/kg (n = 3)): 0 n (%) | Treatment-emergent AE of all grades, irrespective of causality: Flu-like symptoms ([1]; Cohort 2, 0.8 mg/kg (n = 7)): 2 (28.6) n (%) | Treatment-emergent AE of all grades, irrespective of causality: Flu-like symptoms ([1]; Total (N = 10)): 2 (20.0) n (%) | AEs leading to permanent discontinuation of study drug ([1]; human, in vivo): 2 (20.0) n (%) | Adverse events leading to study discontinuation ([1]; human, in vivo): 20.0% | Any AE ([1]; human, in vivo): 10 (100) n (%) | Any drug-related AE ([1]; human, in vivo): 10 (100) n (%) | Any serious AE ([1]; human, in vivo): 3 (30.0) n (%) | Grade 3 AE ([1]; human, in vivo): 5 (50.0) n (%) | Grade 3 drug-related AE ([1]; human, in vivo): 2 (20.0) n (%) | Grade 3 hypertension ([1]; human, in vivo): no reports of grade 3 hypertension | Grade 4 AE ([1]; human, in vivo): 1 (10.0) n (%) | Hematologic and biochemical toxicity event: anemia ([1]; human, in vivo): 90.0% | Hematologic and biochemical toxicity event: hypoalbuminemia ([1]; human, in vivo): 90.0% | Hematologic and biochemical toxicity event: lymphocytopenia ([1]; human, in vivo): 90% | TEAE of all grades irrespective of causality: constipation ([1]; human, in vivo): 50.0% | TEAE of all grades irrespective of causality: hyperglycemia ([1]; human, in vivo): 80.0% | TEAEs of grade 3 as worst grade ([1]; human, in vivo): 50.0% | TEAEs of grade 3 as worst grade considered drug-related ([1]; human, in vivo): 20.0% | Treatment-emergent AE of all grades, irrespective of causality: Acneiform rash ([1]; human, in vivo): 3 (30.0) n (%) | Treatment-emergent AE of all grades, irrespective of causality: Anemia ([1]; human, in vivo): 3 (30.0) n (%) | Treatment-emergent AE of all grades, irrespective of causality: Anorexia ([1]; human, in vivo): 3 (30.0) n (%) | Treatment-emergent AE of all grades, irrespective of causality: Constipation ([1]; human, in vivo): 5 (50.0) n (%) | Treatment-emergent AE of all grades, irrespective of causality: Cough ([1]; human, in vivo): 2 (20.0) n (%) | Treatment-emergent AE of all grades, irrespective of causality: Fever ([1]; human, in vivo): 4 (40.0) n (%) | Treatment-emergent AE of all grades, irrespective of causality: Hyperglycemia ([1]; human, in vivo): 8 (80.0) n (%) | Treatment-emergent AE of all grades, irrespective of causality: Hypertension ([1]; human, in vivo): 7 (70.0) n (%) | Treatment-emergent AE of all grades, irrespective of causality: Increased ALP ([1]; human, in vivo): 4 (40.0) n (%) | Treatment-emergent AE of all grades, irrespective of causality: Increased ALT ([1]; human, in vivo): 3 (30.0) n (%) | Treatment-emergent AE of all grades, irrespective of causality: Increased AST ([1]; human, in vivo): 2 (20.0) n (%) | Treatment-emergent AE of all grades, irrespective of causality: Insomnia ([1]; human, in vivo): 2 (20.0) n (%) | Treatment-emergent AE of all grades, irrespective of causality: Investigations, other ([1]; human, in vivo): 4 (40.0) n (%) | Treatment-emergent AE of all grades, irrespective of causality: Leukopenia ([1]; human, in vivo): 4 (40.0) n (%) | Treatment-emergent AE of all grades, irrespective of causality: Lymphocytopenia ([1]; human, in vivo): 4 (40.0) n (%) | Treatment-emergent AE of all grades, irrespective of causality: Malaise ([1]; human, in vivo): 2 (20.0) n (%) | Treatment-emergent AE of all grades, irrespective of causality: Nausea ([1]; human, in vivo): 3 (30.0) n (%) | Treatment-emergent AE of all grades, irrespective of causality: Neutropenia ([1]; human, in vivo): 4 (40.0) n (%) | Treatment-emergent AE of all grades, irrespective of causality: Oral mucositis ([1]; human, in vivo): 2 (20.0) n (%) | Treatment-emergent AE of all grades, irrespective of causality: Pruritus ([1]; human, in vivo): 2 (20.0) n (%) | Treatment-emergent AE of all grades, irrespective of causality: Tumor pain ([1]; human, in vivo): 4 (40.0) n (%) | AEs leading to dose modification ([1]; human, in vivo, 28 days): 1 (33.3) n (%) | Patients with dose-limiting toxicity (DLT) ([1]; human, in vivo, 28 days): No patients treated at 0.4 mg/kg experienced a dose-limiting toxicity | Cases of colitis ([1]; in vivo): no cases of colitis | Deaths on study ([1]; in vivo): No deaths on study were reported | Hematologic and biochemical toxicity event: hyperglycemia ([1]; in vivo): all ten patients | Hematologic and biochemical toxicity event: increased creatinine ([1]; in vivo): all ten patients | Patients with dose-limiting toxicity (DLT) ([1]; in vivo): No patients experienced DLTs | Patients with grade ≥3 elevated aminotransferase levels ([1]; in vivo): Two patients | Relationship to study drug: grade 3 Anemia ([1]; in vivo): Not likely to be related | Relationship to study drug: grade 3 Diarrhea ([1]; in vivo): Possibly related | Relationship to study drug: grade 3 Hepatobiliary disorder ([1]; in vivo): Not likely to be related | Relationship to study drug: grade 3 Hyperglycemia ([1]; in vivo): Possibly related | Relationship to study drug: grade 3 Increased ALP ([1]; in vivo): Not likely to be related | Relationship to study drug: grade 3 Increased ALT ([1]; in vivo): Not likely to be related | Relationship to study drug: grade 3 Insomnia ([1]; in vivo): Not likely to be related | Relationship to study drug: grade 3 Lymphocytopenia ([1]; in vivo): Possibly related | Relationship to study drug: grade 3 Stroke ([1]; in vivo): Not likely to be related | Relationship to study drug: grade 4 Increased AST ([1]; in vivo): Not likely to be related | Grade 5 adverse events ([1]; irrespective of causality): No grade 5 adverse events were reported | PI3K isoform preference (class I PI3K): preferential activity against the p110α and p110δ isoforms of PI3K
